Source: paper PMC3108181 (Biochimica et biophysica acta, 2011)
Values joined by “and” are separate entries in the source; they are usually repeats but may differ in a detail not shown here. Equal values may be shown once. “Also recorded” adds a separate entry of the source. Read-outs that look alike come from different tables or passages of the source.

Assays:
complex IV = conditions: cited from earlier work; for Inhibition of complex IV: 400 uM DA, 2 hrs of incubation
complex I = conditions: cited from earlier work
[1] = tested on: Complex I: NADH:ubiquinone oxidoreductase; assay: Complex I activity in lysed rat brain mitochondria; assay type: biochemical; conditions: for Effect on complex I activity: lysed rat brain mitochondria, 30 min pre-incubation (same with no pre-incubation)
[2] = tested on: Complex II/III: succinate:cytochrome C-oxidoreductase; assay: Complex II/III activity in lysed rat brain mitochondria; assay type: biochemical
[3] = tested on: Complex IV: ferrocytochrome C oxidase:oxygen oxidoreductase; assay: Complex IV activity in lysed rat brain mitochondria; assay type: biochemical; conditions: for Effect on complex IV activity: lysed rat brain mitochondria, 15 min pre-incubation at room temperature; for Prevention of the complex IV inhibition observed with DAH: (2U) SOD plus (2U) Cat, 10 uM pargyline and 10 uM clorgyline, DTT 50 uM, data not shown
[4] = target: Complex II: succinate:ubiquinone oxidoreductase (Rattus norvegicus, UniProt P21913+Q641Z9+Q6PCT8+Q920L2); assay: Complex II activity; assay type: biochemical; conditions: for Effect on complex II activity: lysed rat brain mitochondria, 15 min pre-incubation at room temperature, malonate sensitive activity
Chain of Complex II: succinate:ubiquinone oxidoreductase (Q920L2 35-656): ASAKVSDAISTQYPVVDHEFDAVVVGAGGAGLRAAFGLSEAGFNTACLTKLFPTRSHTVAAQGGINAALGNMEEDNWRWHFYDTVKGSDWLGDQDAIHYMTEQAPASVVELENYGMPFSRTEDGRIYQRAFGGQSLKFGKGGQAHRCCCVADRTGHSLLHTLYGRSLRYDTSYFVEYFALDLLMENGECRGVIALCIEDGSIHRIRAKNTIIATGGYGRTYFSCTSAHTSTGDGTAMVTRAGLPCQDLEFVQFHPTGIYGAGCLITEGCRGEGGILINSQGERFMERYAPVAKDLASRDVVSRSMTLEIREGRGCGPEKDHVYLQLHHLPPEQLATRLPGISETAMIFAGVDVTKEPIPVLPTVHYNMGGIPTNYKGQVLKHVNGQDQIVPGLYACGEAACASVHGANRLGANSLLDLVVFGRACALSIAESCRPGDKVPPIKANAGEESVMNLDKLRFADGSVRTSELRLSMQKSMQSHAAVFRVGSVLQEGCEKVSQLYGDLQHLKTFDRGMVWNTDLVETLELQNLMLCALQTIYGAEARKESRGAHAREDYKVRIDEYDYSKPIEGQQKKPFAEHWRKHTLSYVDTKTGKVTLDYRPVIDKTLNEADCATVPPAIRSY
Chain of Complex II: succinate:ubiquinone oxidoreductase (P21913 31-282): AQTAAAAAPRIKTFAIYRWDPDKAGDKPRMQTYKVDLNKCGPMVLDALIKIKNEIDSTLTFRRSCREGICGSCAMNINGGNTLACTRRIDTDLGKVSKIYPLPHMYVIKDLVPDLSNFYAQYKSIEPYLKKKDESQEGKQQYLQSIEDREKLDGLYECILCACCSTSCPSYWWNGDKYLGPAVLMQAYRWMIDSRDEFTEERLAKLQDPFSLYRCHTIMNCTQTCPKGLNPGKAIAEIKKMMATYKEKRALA
Chain of Complex II: succinate:ubiquinone oxidoreductase (Q641Z9 1-169): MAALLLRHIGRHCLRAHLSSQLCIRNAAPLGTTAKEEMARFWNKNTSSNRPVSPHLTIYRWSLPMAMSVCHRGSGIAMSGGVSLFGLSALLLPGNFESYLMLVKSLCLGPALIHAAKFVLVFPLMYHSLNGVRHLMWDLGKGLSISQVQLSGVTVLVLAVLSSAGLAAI
Chain of Complex II: succinate:ubiquinone oxidoreductase (Q6PCT8 57-159): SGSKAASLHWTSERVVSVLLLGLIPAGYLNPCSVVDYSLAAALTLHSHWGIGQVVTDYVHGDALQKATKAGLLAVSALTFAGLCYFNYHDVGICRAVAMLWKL

[5] = tested on: Complex I/III: NADH:cytochrome C-oxidoreductase; assay: Complex I/III activity in lysed rat brain mitochondria; assay type: biochemical
[6] = target: Complex III: ubiquinol: ferricytochrome C oxidoreductase; assay: Complex III activity in lysed rat brain mitochondria; assay type: biochemical; conditions: for Inhibition of complex III activity: myxothiazol (60uM) and antimycin A (0.002mg/ml) together, parallel control
[7] = tested on: NADH-Oxidase (complexes I, III and IV); assay: NADH-oxidase activity in lysed rat brain mitochondria; assay type: biochemical
[8] = read-out: Inhibition of complex II activity

In the case of `NCCc1ccc(O)c(O)c1` [DAH, dopamine], the “Inhibition of complex IV” value (complex IV; ref 29) is listed as 62.8%, the “Inhibition of complex IV” value (complex IV; ref 30) is listed as 57% and the “Effect on complex IV” value (complex IV; DA up to 1mM, 1 min incubation) is listed as “no inhibition”. The IC50 (complex I; read-out: IC50 for inhibition of complex I) was 8 to 12 µM and 8.12 µM, the “Effect on complex I activity” value [1] was “not affected; also recorded: No effect at 1mM” and the “Effect on complex II/III activity” value [2] was “inhibited complex II/III activity to a similar extent as was observed with complex II alone”. The “Complex IV activity, % of control” value ([3]; 1 mM DAH, concluded to be an artifact (back reaction with oxidized cytochrome C)) was 61 % of control, the “Effect on complex IV activity” value [3] was “Inhibited at 1mM due to artifactual competing back reaction between oxidized cytochrome C and reduced dopamine” and the “Effect on complex II activity” value [4] was “Significantly inhibited at 500 uM and 1mM”. For the same compound, the inhibition at 500 µM [4, 8] was 32.7 ± 2%, the inhibition at 1000 µM [4, 8] was 41.9 ± 5.5% and the “Complex I/III activity, mean % of control” value ([5]; 200 uM DA plus tyrosinase (25U) alone (DAQ), ± sem) was 7 % of control.

For `O=C(O)Cc1ccc(O)c(O)c1` [DOPAC-H, 3,4-dihydroxyphenylacetic acid], the “Effect on complex IV activity” value (complex IV; 400 uM DOPAC, rat brain mitochondria, 2 hr pre-incubation) is listed as “only marginal effects”, the “Effect on complex I activity” value [1] is listed as “not affected; also recorded: No effect at 1mM” and the “Effect on complex II/III activity” value ([2]; lysed rat brain mitochondria, 15 min exposure at room temperature, inhibitor corrected rates) is listed as “did not significantly inhibit”. The “Effect on complex IV activity” value [3] was “not affected; also recorded: No effect at 1mM” and the “Effect on complex II activity” value [4] was “not significantly affected; also recorded: not attenuated; also recorded: No effect at 1mM”.

For `O=C(O)CC1=CC(=O)C(=O)C=C1` [DOPAC-Q], the IC50 ([6]; read-out: IC50 for inhibition of complex III activity, 15 min pre-incubation at room temperature, mean ± SEM) was 110 µM, the “Effect on complex IV activity” value [3] was “did not inhibit; also recorded: No effect up to 400 uM” and the “Effect on complex II activity” value [4] was “did not attenuate; also recorded: No effect up to 400 uM”.

For `O[C@@H](CS)[C@@H](O)CS` [DTT, dithioreitol, reference compound], the “Prevention of the complex IV inhibition observed with DAH” value ([3]; 1 mM DAH) was “not prevented”.

For `CCCCCC[C@H]1C(=O)O[C@H](C)[C@H](NC(=O)c2cccc(NC=O)c2O)C(=O)O[C@@H](C)[C@@H]1OC(=O)CC(C)C` [antimycin A], the “Inhibition of complex III activity” value [6] was no less than 95%.

For `C#CCN(C)CCCOc1ccc(Cl)cc1Cl` [clorgyline, reference compound], the “Prevention of the complex IV inhibition observed with DAH” value ([3]; 1 mM DAH) was “not prevented”.

For `CC(=O)N(O)CCCCCNC(=O)CCC(=O)N(O)CCCCCNC(=O)CCC(=O)N(O)CCCCCN` [desferoxamine, reference compound], the “Attenuation of DA mediated inhibition of complex I activity” value (complex I) is given as “partially attenuated”.

With `O=C(O)CC(=O)O` [malonate, reference compound] the “Inhibition of complex II activity” value ([4]; malonate 10mM, parallel control) was 90–95%.

In the case of `CO/C(=C/C(N)=O)[C@H](C)[C@H](/C=C/c1csc(-c2csc([C@@H](C)/C=C/C=C/C(C)C)n2)n1)OC` [myxothiazol], the “Inhibition of complex III activity” value [6] is reported as no less than 95%.

For `C#CCN(C)Cc1ccccc1` [pargyline, reference compound], the “Prevention of the complex IV inhibition observed with DAH” value ([3]; 1 mM DAH) was “not prevented”.

For `C=C(C)[C@H]1Cc2c(ccc3c2O[C@@H]2COc4cc(OC)c(OC)cc4[C@@H]2C3=O)O1` [rotenone, reference compound], the “Inhibition of NADH-oxidase activity” value [7] was no less than 90% and the “Inhibition of complex I/III activity” value [5] was no less than 95%.

With catalase the “Prevention of DAQ mediated inhibition of complex I” value ([1]; 50 uM DAQ plus SOD [2U] and catalase [1U] together) was “did not prevent” and the “Prevention of the complex IV inhibition observed with DAH” value ([3]; 1 mM DAH) was “not prevented”.
